# Experimental data from patent US20100003217A1, “Compounds and Pharmaceutical Compositions for the Treatment of Viral Infections” (priority 2008, published 2010).
# Assay: Total radioactivity in rat liver after [^14C]-Compound 1
# Format: in vivo, male Sprague-Dawley rats
# Procedure: Isotopically diluted [^14C]-Compound 1 was administered intravenously to male Sprague-Dawley rats at 50 mg/kg or by oral gavage at 100 mg/kg.
# Liver samples were collected at 2, 6 and 24 h postdose from the animals of both the IV and the PO dose groups. The samples were flash frozen after excision and kept on dry ice during homogenization. The homogenization was conducted on dry ice in 70% methanol-30% water containing 20 mM EDTA and 20 mM EGTA (about 1× (w/v) weight of the liver). Triplicate weighed aliquots (about 500 mg) were combusted in the Packard Sample Oxidizer and followed by LSC analysis to determine radioactivity […]). The average data for levels of total radioactivity in liver are summarized below.
# [1] = Group 1A: IV 50 mg/kg, 2 h postdose
# [2] = Group 1B: IV 50 mg/kg, 6 h postdose
# [3] = Group 1C: IV 50 mg/kg, 24 h postdose
# [4] = Group 2A: PO 100 mg/kg, 2 h postdose
# [5] = Group 2B: PO 100 mg/kg, 6 h postdose
# [6] = Group 2C: PO 100 mg/kg, 24 h postdose
smiles,measurement,setting,value
"CC(C)(CO)C(=O)SCCOP(=O)(NCc1ccccc1)OC[C@H]1O[C@@H](n2cnc3c(=O)[nH]c(N)nc32)[C@](C)(O)[C@@H]1O (mixture of isomers) [Compound 1, 3-hydroxy-2,2-dimethyl-thiopropionic acid S-(2-{[(2R,3R,4R,5R)-5-(2-amino-6-oxo-1,6-dihydro-purin-9-yl)-3,4-dihydroxy-4-methyl-tetrahydro-furan-2-ylmethoxy]-benzylamino-phosphoryloxy}-ethyl) ester]",Concentration of total radioactivity in liver as μg equivalents/gram,[1],206 ± 24 μg equivalents/gram
same,Total radioactivity in liver as % AD,[1],15.5 ± 0.7 % AD
same,Concentration of total radioactivity in liver as μg equivalents/gram,[2],137 ± 12 μg equivalents/gram
same,Total radioactivity in liver as % AD,[2],10.1 ± 1.0 % AD
same,Concentration of total radioactivity in liver as μg equivalents/gram,[3],23.2 ± 3.1 μg equivalents/gram
same,Total radioactivity in liver as % AD,[3],1.76 ± 0.11 % AD
same,Concentration of total radioactivity in liver as μg equivalents/gram,[4],5.09 ± 0.78 μg equivalents/gram
same,Total radioactivity in liver as % AD,[4],0.20 ± 0.04 % AD
same,Concentration of total radioactivity in liver as μg equivalents/gram,[5],10.3 ± 1.2 μg equivalents/gram
same,Total radioactivity in liver as % AD,[5],0.37 ± 0.05 % AD
same,Concentration of total radioactivity in liver as μg equivalents/gram,[6],4.08 ± 1.10 μg equivalents/gram
same,Total radioactivity in liver as % AD,[6],0.17 ± 0.03 % AD
same,"total radioactivity in liver, % of the administered dose","IV [^14C]Compound 1, 2 h",16%
same,"total radioactivity in liver, % of the administered dose","IV [^14C]Compound 1, 6 h",10%
same,"total radioactivity in liver, % of the administered dose","IV [^14C]Compound 1, 24 h",1.8%
same,total radioactivity in liver,"IV, 2 h",206 μg equivalents of Compound 1/g of liver
same,total radioactivity in liver,"IV, 6 h",137 μg equivalents of Compound 1/g of liver
same,total radioactivity in liver,"IV, 24 h",23 μg equivalents of Compound 1/g of liver
same,total radioactivity in liver,"oral administration, 2 h",5 μg equivalents of Compound 1/g of liver
same,"total radioactivity in liver, % of the dose","oral administration, 2 h",0.2%
same,total radioactivity in liver,"oral administration, 6 h",10 μg equivalents of Compound 1/g of liver
same,"total radioactivity in liver, % of the dose","oral administration, 6 h",0.4%
same,total radioactivity in liver,"oral administration, 24 h",4 μg equivalents of Compound 1/g of liver
same,"total radioactivity in liver, % of the dose","oral administration, 24 h",0.2%
